Measured values as given in patent US20070269384A1, “Use of perfluoroalkyl-containing metal complexes as contrast media for diagnosis of Alzheimer's disease” (priority 2006, published 2007).

Legend:
[1] = Hydrodynamic micelle diameter 2 Rh by photon-correlation spectroscopy; type: physicochemical
Text: The amphiphilic compounds according to the invention are combined in solution and are present as aggregates. The size (2 Rh) of such aggregates (e.g., micelles, rods, oblates, etc.) can be determined with the aid of photon-correlation spectroscopy (PCS).
As a second criterion for preferably usable metal complexes, therefore, the hydrodynamic micelle diameter 2 Rh, which must be >1 nm, is used. Those perfluoroalkyl-containing metal complexes, whose 2 Rh≧3 nm, quite especially preferably >4 nm, are especially suitable according to the invention.
(§1) Both the determination of CMC and the photon correlation spectroscopy are described in H.-D. Dorfler, “Grenzflächen- and Kolloidchemie [Interface and Colloid Chemistry],” Weinheim, New York, Basel, Cambridge, Tokyo, VSH 1994.

[2] = Critical micelle formation concentration (CMC) by tensiometry; type: physicochemical
Method: In aqueous systems, these amphiphilic molecules show the properties that are characteristic of standard surfactants (such as, e.g., sodium dodecyl sulfate, SDS). Thus, they reduce the surface tension of the water. By tensiometry, the so-called CMC (critical micelle formation concentration in mol/l) can be determined. To this end, the surface tension is determined based on the concentration of the substance to be measured. The CMC can be calculated from the course of the surface tension (c) function that is obtained. The critical micelle formation concentration of the compounds according to the invention should be <10^−3 mol/l, preferably <10^−4 mol/l.
as §1

[3] = Proton relaxivity R1 in bovine plasma (Minispec P 20); type: physicochemical; details: in plasma at 40° C., magnetic field strength 0.47 Tesla
Method: As a third criterion for especially suitable MR contrast media, the proton relaxivity (relaxivity) in plasma (R1) at 40° C. and a field strength of 0.47 Tesla is used. The relaxivity, which is indicated in [l/mmol*s], is the quantitative measurement for the shortening of the relaxation time T1 of the protons. For the purpose according to the invention, the relaxivity must be as high as possible and must be >10 l/mmol*s, preferably >13 l/mmol*s, especially preferably >15 l/mmol*s.
The relaxivity R1 [l/mmol*s] of the MR contrast media according to the invention was determined with the Minispec P 20 device of the Bruker Company. The measurements were made at 40° C. and a field strength of 0.47 Tesla. 8 measuring points were recorded in each T1 sequence (180°-T1-90°, inversion recovery). As a medium, bovine plasma of the Kraeber Company was used. The contrast medium concentrations [mmol/l] in the preparations were between 0.30 and 1.16.

amyloid plaques = assay: MRT visualization of Alzheimer lesions after intravenous administration in APP-23 mice; type: in vivo; details: 0.5 mmol of Gd/kg i.v., up to 60 minutes after administration, 7T, localization confirmed by Puchtler's Congo red stain
Method: MRT Visualization of Alzheimer Lesions After Intravenous Administration of Contrast Medium in APP-23 Mice
The images of FIG. 1 show MR images of the brain before as well as up to 60 minutes after intravenous administration of 0.5 mmol of Gd/kg of body weight of metal complex 13 (MK13) in APP-23 mice (mice with genetically-induced Alzheimer's disease). […] The localization of the amyloid-containing structures was confirmed by means of Puchtler's Congo red stain. With this test, the suitability of the compounds according to the invention as in-vivo markers for amyloid plaques in the brains of mice with Alzheimer's disease could be shown.

Compound | 2 Rh (Hydrodynamic Micelle Diameter) [1] | CMC (Critical Micelle Formation Concentration) [2] | R1 (Relaxivity) [3] | MR signal in the amyloid plaques of the diseased brains (T1-weighted spin echo images) (amyloid plaques)
gadolinium complex of 1,4,7-tris{1,4,7-tris(N-(carboxylatomethyl)-10-[N-1-methyl-3,6-diaza-2,5,8-trioxooctane-1,8-diyl)]-1,4,7,10-tetraazacyclododecane, Gd complex}-10-[N-2H, 2H, 4H, 4H, 5H, 5H-3-oxa-perfluoro-tridecanoyl]-1,4,7,10-tetraazacyclododecane [MK 12] | 2.2 nm | 0.00089 mol/L | 19.5 L/mmol/s | 
CC(C(=O)NCC(=O)NCCCC[C@H](NC(=O)CO[C@H]1O[C@H](CO)[C@@H](O)[C@H](O)[C@@H]1O)C(=O)N1CCN(S(=O)(=O)C(F)(F)C(F)(F)C(F)(F)C(F)(F)C(F)(F)C(F)(F)C(F)(F)C(F)(F)F)CC1)N1CCN(CC(=O)[O-])CCN(CC(=O)[O-])CCN(CC(=O)[O-])CC1.[Gd+3] (stereo partly drawn) [MK 13, gadolinium complex of 6-N-[1,4,7-tris(carboxylatomethyl)-1,4,7,10-tetraazacyclododecane-10-N-(pentanoyl-3-aza-4-oxo-5-methyl-5-yl)]-2-N-[1-O-α-D-carbonylmethyl-manno-pyranose]-L-lysine-[1-(4-perfluorooctylsulfonyl)-piperazine]-amide] | 4.4 nm | 2.5e-06 mol/L | 15.9 L/mmol/s | strong signal increase
